These are literature values, as cited in patent US20090099199A1, “ORGANIC COMPOUNDS” (priority 2007, published 2009).

The subject of the data set is rats. The following applies: icv administration (Thorsell et al. Neurosci. Lett. 2002); cited from earlier work.

With `N=C(N)NCCC[C@H](NC(=O)CC1(CC(=O)N2CCN(C3c4ccccc4NC(=O)c4ccccc43)CC2)CCCC1)C(=O)NCCn1c(=O)n(-c2ccccc2)n(-c2ccccc2)c1=O` (stereo partly shown) [BIIE0246], the ethanol self-administration result was “dose dependently reduced ethanol self-administration”.
